Read-outs that look alike come from different tables or passages of the source. Each block holds one compound with its values, some of them ahead of it.
Assays:
T. b. brucei = assay: In vitro antitrypanosomal activity against T. brucei (growth inhibition); type: cell-based, Trypanosoma brucei
Method: Primary hits from the screen were further characterized using a dose-response assay format to determine the EC50. In parallel, the cytotoxicities of these compounds were determined against a proliferating human hepatoma cell line (Huh7). […] SI—CC50/EC50). The final set of confirmed T. brucei hits consisted of 1035 inhibitors. […] In vitro antitrypanosomal activities against T. b. rhodesiense (STIB9000) and cytotoxicities against L6 rat myoblast cells were measured following established protocols (Orhan et al., Mar. Drugs 8:47 (2010). […] All wells including negative controls contained a final of 0.4% DMSO. After incubation of the plates at 37° C. for 48 h, the parasite density was determined using the CellTiter-Glo reagent (Promega), a firefly luciferase assay system that measures the amount of cellular ATP present in plate wells.

Trypanosoma cruzi = assay: Efficacy against T. cruzi in vitro; type: cell-based; conditions: Trypanosoma cruzi; Table 16; read-out: T. Cruzi EC50
[1] = Trypanosoma brucei, Table 17, read-out: T. b. brucei EC50
[2] = Trypanosoma brucei, Table 17, read-out: T. b. brucei EC90
[3] = Trypanosoma brucei, Table 16, read-out: T. b. brucei EC50
[4] = Trypanosoma brucei, Table 9, read-out: T. brucei EC50
[5] = Trypanosoma brucei, Table 9, read-out: T. brucei EC90

Compound: Cc1nc(C(=O)Nc2ccc3sc(-c4ccc(F)c(F)c4)nc3c2)c(C)o1 [Compound 60]
EC50 (T. b. brucei; [1]): > 20000 nM | EC90 (T. b. brucei; [2]): > 20000 nM

Compound: O=C(Nc1ccc2sc(-c3ccc(F)c(F)c3)nc2c1)c1cnco1 [Compound 58, N-(2-(3,4-Difluorophenyl)benzo[d]thiazol-5-yl)oxazole-5-carboxamide]
EC50 (T. b. brucei; [1]): > 20000 nM | EC90 (T. b. brucei; [2]): > 20000 nM

Compound: O=C(Nc1ccn2cc(-c3cccc(F)c3F)nc2c1)N1CCCC1 [Compound 45, N-[2-(2,3-difluorophenyl)imidazo[1,2-a]pyridin-7-yl]pyrrolidine-1-carboxamide]
EC50 (T. b. brucei; [3]): 580 nM | EC50 (Trypanosoma cruzi): 1020 nM

Compound: O=C(Nc1ccc2sc(-c3ccc(F)c(F)c3)nc2c1)c1cncs1 [Compound 61]
EC50 (T. b. brucei; [1]): 3830 nM | EC90 (T. b. brucei; [2]): 7370 nM

Compound: Cc1nc(C)c(C(=O)Nc2ccc3sc(-c4ccc(F)c(F)c4)nc3c2)s1 [Compound 62]
EC50 (T. b. brucei; [1]): > 20000 nM | EC90 (T. b. brucei; [2]): > 20000 nM

Compound: O=C(Nc1ccn2cc(-c3ccc(F)c(F)c3)nc2n1)N1CC[C@H](F)C1 [Compound 54, (3S)-N-[2-(3,4-difluorophenyl)imidazo[1,2-a]pyrimidin-7-yl]-3-fluoropyrrolidine-1-carboxamide]
EC50 (T. b. brucei; [3]): > 20000 nM | EC50 (Trypanosoma cruzi): 2530 nM

Compound: N-(2-(3,4-Difluorophenyl)benzo[d]thiazol-5-yl)oxazole-4-carboxamide [Compound 57]
EC50 (T. b. brucei; Table 17, read-out: T. b. brucei EC50): > 20000 nM | EC90 (T. b. brucei; Table 17, read-out: T. b. brucei EC90): > 20000 nM

Compound: NC1CCN(C(=O)Nc2ccc3sc(-c4ccc(F)c(F)c4)nc3c2)C1 (stereo not drawn) [Compound 37, 2-(3,4-Difluorophenyl)-5-(3-amino-N-pyrrolidylamido)benzothiazole]
EC50 (T. b. brucei; [4]): 2320 nM | EC90 (T. b. brucei; [5]): 2720 nM

Compound: O=C(Nc1ccn2cc(-c3cccc(F)c3F)nc2c1)N1CCCCC1 [Compound 46, N-[2-(2,3-difluorophenyl)imidazo[1,2-a]pyridin-7-yl]piperidine-1-carboxamide]
EC50 (T. b. brucei; [3]): 720 nM | EC50 (Trypanosoma cruzi): 1000 nM

Compound: O=C(Nc1ccc2sc(-c3ccccc3)nc2c1)c1cscn1 [Compound 21, N-(2-Phenylbenzo[d]thiazol-5-yl)thiazole-4-carboxamide]
EC50 (T. b. brucei; [4]): > 10000 nM | EC90 (T. b. brucei; [5]): > 10000 nM

Now from value to compound, other results behind:

EC50 (Trypanosoma cruzi): 90 nM
Compound: O=C(Nc1cc2nc(-c3ccc(F)c(F)c3)cn2cn1)N1CC[C@H](F)C1 [Compound 53, (3S)-N-[2-(3,4-difluorophenyl)imidazo[1,2-c]pyrimidin-7-yl]-3-fluoropyrrolidine-1-carboxamide]
EC50 (T. b. brucei; [3]): 20 nM

EC50 (Trypanosoma cruzi): 390 nM
Compound: O=C(Nc1ccn2cc(-c3ccc(F)c(F)c3)nc2c1)N1CC[C@H](F)C1 [Compound 41, (3S)-N-[2-(3,4-difluorophenyl)imidazo[1,2-a]pyridin-7-yl]-3-fluoropyrrolidine-1-carboxamide]
EC50 (T. b. brucei; [3]): 160 nM

EC50 (Trypanosoma cruzi): 710 nM
Compound: O=C(Nc1ccn2cc(-c3cccc(F)c3)nc2c1)N1CC[C@H](F)C1 [Compound 47, (3S)-3-fluoro-N-[2-(3-fluorophenyl)imidazo[1,2-a]pyridin-7-yl]pyrrolidine-1-carboxamide]
EC50 (T. b. brucei; [3]): 160 nM

EC50 (Trypanosoma cruzi): 1080 nM
Compound: O=C(Nc1ccn2cc(-c3ccccc3)nc2c1)N1CC[C@H](F)C1 [Compound 50, (3S)-3-fluoro-N-{2-phenylimidazo[1,2-a]pyridin-7-yl}pyrrolidine-1-carboxamide]
EC50 (T. b. brucei; [3]): 620 nM

EC50 (Trypanosoma cruzi): 2950 nM
Compound: O=C(Nc1ccn2cc(-c3cccc(F)c3)nc2c1)N1CCCC1 [Compound 48, N-[2-(3-fluorophenyl)imidazo[1,2-a]pyridin-7-yl]pyrrolidine-1-carboxamide]
EC50 (T. b. brucei; [3]): 730 nM
